These results are taken from PMC6278354, “Investigation of New Orexin 2 Receptor Modulators Using In Silico and In Vitro Methods” (Molecules, 2018).

One series is described as follows: MTT cytotoxicity assay. The format is cell-based. The conditions noted are these: Chinese hamster. As to the method:
(§1) Adherent epithelial CHO-K1 cell line (Chinese hamster ovary, ATCC, #CCL-61, Manassas, VA, USA) was grown in Ham’s F12 Nutrient Mixture supplemented with 10% heat-inactivated FBS and antibiotics 1% penicillin (10,000 U/mL)/streptomycin (10,000 µg/mL) at 37 °C, 95% humidity and under 5% CO2.
(§2) The cytotoxic effect of the studied compounds was assessed using standard MTT (3-[4–dimethylthiazol-2-yl]-2,5-diphenyltetrazolium bromide) assay on the CHO-K1 cell line. […] Cells were seeded in 96-well plates and exposed to the tested compounds in the medium (100 µL) for 24 h at 37 °C, 95% humidity, and in an atmosphere of 5% CO2. Subsequently, this medium was replaced by the medium containing MTT (10 µM) and incubated for another 3–4 h. After that, the medium with MTT was removed and formazan crystals were dissolved by the addition of 100 µL DMSO. Viability of the cells was estimated spectrophotometrically by the amount of produced formazan. The absorbance was measured at 570 nm, with 650 nm as a reference wavelength on a Synergy HT reader (Biotek, USA). Results were expressed as IC50 from the control-subtracted triplicates (in comparison with untreated control) using non-linear regression (four parameters) in GraphPad Prism 7.03 (GraphPad Software Inc., CA, USA).

Series [1] is described as follows: PAMPA assay for prediction of BBB penetration (polar brain lipid). The following applies: for Papp at 30 µM: PAMPA, pH 7.4; for CNS Predicted Availability: class from PAMPA Pe; for BBB permeation via passive diffusion, in words: from PAMPA Pe.
The target in series [2] is T1, human OX2R (Homo sapiens, UniProt O43614).
T1 construct: host or cells: CHO-K1
T1 sequence (O43614 1-444): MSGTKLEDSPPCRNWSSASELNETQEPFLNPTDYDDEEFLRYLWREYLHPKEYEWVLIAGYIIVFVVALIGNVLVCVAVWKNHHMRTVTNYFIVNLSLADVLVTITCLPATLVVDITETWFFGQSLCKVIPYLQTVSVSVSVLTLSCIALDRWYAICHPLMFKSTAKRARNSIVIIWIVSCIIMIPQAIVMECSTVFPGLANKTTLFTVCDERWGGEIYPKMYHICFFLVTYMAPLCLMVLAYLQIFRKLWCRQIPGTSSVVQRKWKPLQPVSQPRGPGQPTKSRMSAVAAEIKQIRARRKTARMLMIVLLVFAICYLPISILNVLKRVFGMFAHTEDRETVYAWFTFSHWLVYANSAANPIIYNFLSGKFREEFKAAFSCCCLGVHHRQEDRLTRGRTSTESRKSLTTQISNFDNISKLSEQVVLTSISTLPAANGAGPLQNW
The experiment in a line: OX2R calcium assay, agonist mode (Fluo-3, CHO-K1 cells stably expressing human OX2R). The conditions noted are these: for agonistic effect in screening: 10 μM ligand; for agonistic effect at higher concentrations: higher concentrations than 10 μM, data not shown. The format is cell-based.

The conditions of series [3]: PAMPA, pH 7.4. On the technique in general: PAMPA measures passive passage across an artificial lipid membrane.
The subject of another series is CHO-K1 cell line. The experiment in a line: MTT cytotoxicity assay. The following applies: Chinese hamster, 24 h. It counts as cell-based. As for the experimental part:
as §1, §2
(Formazan colour is commonly taken as a measure of viable cells.)

The next series can be described thus: in vitro. The following applies: PAMPA, pH 7.4.
For series [4], the target named is T1, human OX2R. The experiment in a line: OX2R calcium assay, antagonist mode against orexin A (Fluo-3, CHO-K1 cells stably expressing human OX2R). It counts as cell-based. The following applies: for IC50: 0.1 μM orexin A as agonist, mean ± SEM, n = 3, read-out: IC50 antagonistic effect in orexin A-OX2R interaction; for antagonistic screening: reduction of orexin A response signal: ligand 10 μM, orexin A 100 nM, data not shown.

The mark [5] stands for this setting: CHO-K1 cells, MTT, 24 h exposure, read-out: Cytotoxicity CHO-K1 IC50 ± SEM.

Like-named read-outs stand apart in the source and are kept apart here.

On to `O=C(c1cnn(-c2ncc3c(n2)-c2ccccc2CC3)c1C1CC1)N1CCN(Cc2ccccc2)CC1` [Ligand L1, 1-(1-{5H,6H-benzo[h]quinazolin-2-yl}-5-cyclopropyl-1H-pyrazole-4-carbonyl)-4-benzylpiperazine], for which the IC50 at 24 h in the series “MTT cytotoxicity assay” (setting [5]) worked out at 78.8 ± 6.88 µM. In series [1], the apparent permeability (Papp) at 30 µM was 10.2 ± 0.9 ×10⁻⁶ cm/s and the “CNS Predicted Availability” value was “CNS + (CNS + (high BBB permeation predicted): Pe (×10^−6 cm s^−1) > 4.0)”.

For the compound `CCn1nnc2cc(C(=O)Nc3ccc4[nH]c(-c5cc(F)ccc5F)nc4c3)ccc21` [Ligand L11, N-[2-(2,5-difluorophenyl)-1H-1,3-benzodiazol-5-yl]-1-ethyl-1H-1,2,3-benzotriazole-5-carboxamide], the IC50 at 24 h in “MTT cytotoxicity assay” (setting [5]) is 28.3 ± 4.07 µM. Also, at human OX2R [2], the “agonistic effect in screening” value is given as “subtle agonistic effect” and the “agonistic effect at higher concentrations” value is given as “neither an agonistic nor dose-response effect”.

`O=C(Nc1ccc2n(c1=O)C[C@H]1C[C@@H]2CN(C(=O)c2ccccn2)C1)c1ccccc1` [Ligand L8, N-[(1R,9S)-6-oxo-11-(pyridine-2-carbonyl)-7,11-diazatricyclo[7.3.1.0^2,7]trideca-2,4-dien-5-yl]benzamide]: the “Pe ± SEM” value in series [3] was 2.0–4.0. The IC50 at 24 h in “MTT cytotoxicity assay” (Cytotoxicity CHO-K1 IC50 ± SEM) was greater than 700 µM. In addition, the IC50 with CHO-K1 cell line was roughly 700 µM. In series [1], the “CNS Predicted Availability” value is on record as “CNS +/− (CNS +/− (BBB permeation uncertain): Pe (×10^−6 cm s^−1) from 4.0 to 2.0)” and the “BBB permeation via passive diffusion, in words” value is on record as “uncertain permeation through the BBB”. Further, the Papp at 30 µM in “in vitro” turned out to be 4 ± 0.3 ×10⁻⁶ cm/s.

As for `CC1CCCC(=O)CCC/C=C/c2cc3c(c(O)c2C(=O)O1)C(c1cc2ccccc2nc1O)CC(=O)O3` (stereo not shown) [Ligand L5, (12E)-22-hydroxy-20-(2-hydroxyquinolin-3-yl)-4-methyl-3,17-dioxatricyclo[12.8.0.0^16,21]docosa-1(14),12,15,21-tetraene-2,8,18-trione], the IC50 at 24 h in the series “MTT cytotoxicity assay” (MTT, 24 h exposure, read-out: Cytotoxicity CHO-K1 IC50 ± SEM) amounted to 59 ± 6.41 µM. The “CNS Predicted Availability” value in series [1] was “CNS + (CNS + (high BBB permeation predicted): Pe (×10^−6 cm s^−1) > 4.0)”. In addition, in the series “in vitro”, the Papp was determined as 12 ± 2.5 ×10⁻⁶ cm/s.

As for `Cc1ccccc1Cn1cc(/C=C2\C(=N)N3N=C(CC(=O)N4CCCC4)SC3=NC2=O)c2ccccc21` [Ligand L7, (6E)-5-imino-6-({1-[(2-methylphenyl)methyl]-1H-indol-3-yl}methylidene)-2-[2-oxo-2-(pyrrolidin-1-yl)ethyl]-5H,6H,7H-[1,3,4]thiadiazolo[3,2-a]pyrimidin-7-one], on human OX2R [4], the IC50 turned out to be 25 ± 2.6 µM and the “antagonistic screening: reduction of orexin A response signal” value (from here on “antagonistic screening: reduction”) is “significantly reduce the signal of orexin A response”. Besides, the IC50 at 24 h in the series “MTT cytotoxicity assay” (setting [5]) was determined as 61.8 ± 3.74 µM. Also, in series [1], the apparent permeability coefficient (Papp) at 30 µM is 3.37 ± 2.1 ×10⁻⁶ cm/s; the “CNS Predicted Availability” value was “CNS +/− (CNS +/− (BBB permeation uncertain): Pe (×10^−6 cm s^−1) from 4.0 to 2.0)”; the “BBB permeation via passive diffusion, in words” value was “uncertain permeation through the BBB”. The “Pe ± SEM” value in series [1] (PAMPA-BBB, PBS pH 7.4, 30 µM donor, at least three measurements) is listed as 2.0–4.0 ×10^−6 cm s^−1.

With `O=C(c1cc(-c2ccco2)nc2ccccc12)N1CCN(C(=O)C2COc3ccccc3O2)CC1` (stereo not shown) [Ligand L3, 4-[4-(2,3-dihydro-1,4-benzodioxine-2-carbonyl)piperazine-1-carbonyl]-2-(furan-2-yl)quinoline], at human OX2R [4], the IC50 came to 8.9 ± 0.43 µM and the “antagonistic screening: reduction” value is on record as “significantly reduce the signal of orexin A response”. The IC50 at 24 h in the series “MTT cytotoxicity assay” (setting [5]) is 279 ± 36.6 µM. For the same compound, in series [1], the Papp at 30 µM is 17.9 ± 2.2 ×10⁻⁶ cm/s and the “CNS Predicted Availability” value is listed as “CNS + (CNS + (high BBB permeation predicted): Pe (×10^−6 cm s^−1) > 4.0)”.

As for `CNC(=C[N+](=O)[O-])NCCSCc1ccc(CN(C)C)o1` [Ranitidine, reference compound], the “CNS Predicted Availability” value in series [1] was “CNS − (CNS − (low BBB permeation predicted): Pe (×10^−6 cm s^−1) < 2.0)”. The compound also gave a Papp in the series “in vitro” of 0.04 ± 0.02 ×10⁻⁶ cm/s.

For the compound `Cn1c(=O)c2c(-c3ccccc3)n3c(c2n(C)c1=O)C(c1coc2ccccc2c1=O)OCC3` (stereo not shown) [Ligand L6, 3,5-dimethyl-13-(4-oxo-4H-chromen-3-yl)-8-phenyl-12-oxa-3,5,9-triazatricyclo[7.4.0.0^2,7]trideca-1,7-diene-4,6-dione], on human OX2R [4], the 50% inhibitory concentration (IC50) was 12.2 ± 3.1 µM and the “antagonistic screening: reduction” value is “significantly reduce the signal of orexin A response”. Also, in the series “MTT cytotoxicity assay” (setting [5]), the 50% inhibitory concentration (IC50) at 24 h was greater than 100 µM. Also, at human OX2R [2], the “agonistic effect in screening” value was “subtle agonistic effect” and the “agonistic effect at higher concentrations” value is recorded as “neither an agonistic nor dose-response effect”. In series [1], the Papp at 30 µM is 17.6 ± 6.4 ×10⁻⁶ cm/s and the “CNS Predicted Availability” value is given as “CNS + (CNS + (high BBB permeation predicted): Pe (×10^−6 cm s^−1) > 4.0)”.

Consider `NS(=O)(=O)c1cc2c(cc1Cl)N=CNS2(=O)=O` [Chlorothiazide, reference compound], for which, in series [1], the Papp at 30 µM is […].

As for `O=C(c1cc(-c2ccco2)nc2ccccc12)N1CCN(c2ccc(=O)n(-c3ccc(F)cc3)n2)CC1` [Ligand L4, 2-(4-fluorophenyl)-6-{4-[2-(furan-2-yl)quinoline-4-carbonyl]piperazin-1-yl}-2,3-dihydropyridazin-3-one], on human OX2R [4], the IC50 was 2.2 ± 0.47 µM and the “antagonistic screening: reduction” value is on record as “significantly reduce the signal of orexin A response”. Moreover, in “MTT cytotoxicity assay” (setting [5]), the IC50 at 24 h was found to be 99.8 ± 10.7 µM. Further, in series [1], the Papp at 30 µM is 18.3 ± 0.1 ×10⁻⁶ cm/s and the “CNS Predicted Availability” value is recorded as “CNS + (CNS + (high BBB permeation predicted): Pe (×10^−6 cm s^−1) > 4.0)”.

Take `O=C1CN(C(=O)CN2CCN(S(=O)(=O)c3ccc4ccccc4c3)CC2)c2ccccc2N1` [Ligand L2, 4-{2-[4-(naphthalene-2-sulfonyl)piperazin-1-yl]acetyl}-1,2,3,4-tetrahydroquinoxalin-2-one]: the half-inhibitory concentration (IC50) at 24 h in “MTT cytotoxicity assay” (setting [5]) was 165 ± 5.36 µM. Further, in series [1], the Papp at 30 µM was 31.6 ± 3.4 ×10⁻⁶ cm/s and the “CNS Predicted Availability” value is “CNS + (CNS + (high BBB permeation predicted): Pe (×10^−6 cm s^−1) > 4.0)”.

Take `O=C1CC(C(=O)Nc2cccc(-c3ccc4c(c3)CCO4)c2)c2ccccc2N1` (stereo not shown) [Ligand L10, N-[3-(2,3-dihydro-1-benzofuran-5-yl)phenyl]-2-oxo-1,2,3,4-tetrahydroquinoline-4-carboxamide]: on human OX2R [4], the IC50 was 27.8 ± 0.5 µM and the “antagonistic screening: reduction” value was “significantly reduce the signal of orexin A response”. The IC50 at 24 h in “MTT cytotoxicity assay” (setting [5]) worked out at 53.9 ± 5.03 µM. In addition, in series [1], the Papp at 30 µM was 18.9 ± 2.4 ×10⁻⁶ cm/s and the “CNS Predicted Availability” value is on record as “CNS + (CNS + (high BBB permeation predicted): Pe (×10^−6 cm s^−1) > 4.0)”.

In the case of `O=C(Cn1nc(-c2ccc(F)cc2)oc1=O)N1CCCC1c1ccc2c(c1)OCCCO2` (stereo not shown) [Ligand L9, 3-{2-[2-(3,4-dihydro-2H-1,5-benzodioxepin-7-yl)pyrrolidin-1-yl]-2-oxoethyl}-5-(4-fluorophenyl)-2,3-dihydro-1,3,4-oxadiazol-2-one], in the series “MTT cytotoxicity assay” (setting [5]), the IC50 at 24 h turned out to be 144 ± 11.1 µM. Further, on human OX2R [2], the “agonistic effect in screening” value is “subtle agonistic effect” and the “agonistic effect at higher concentrations” value is recorded as “neither an agonistic nor dose-response effect”. In series [1], the Papp at 30 µM was 32.3 ± 1.5 ×10⁻⁶ cm/s and the “CNS Predicted Availability” value is “CNS + (CNS + (high BBB permeation predicted): Pe (×10^−6 cm s^−1) > 4.0)”.

In general, IC50 refers to the point on the concentration scale where inhibition reaches its midpoint. What is called Papp is a coefficient for how fast a substance crosses the barrier.
